Laboratory results: patent US20250255821A1, “SOLID DISPERSIONS COMPRISING A SGC STIMULATOR” (Cyclerion Therapeutics, Inc., priority 2015, published 2025)

Assay: Solubility of Compound I in aqueous media
Type: physicochemical
Conditions: pH independent

OC(CNc1nc(-c2cc(-c3ccon3)n(Cc3ccccc3F)n2)ncc1F)(C(F)(F)F)C(F)(F)F [Compound I, 1,1,1,3,3,3-hexafluoro-2-(((5-fluoro-2-(1-(2-fluorobenzyl)-5-(isoxazol-3-yl)-1H-pyrazol-3-yl)pyrimidin-4-yl)amino)methyl)propan-2-ol]
Solubility in aqueous media: low solubility
